How the values were obtained:
Assay in all cases: relative viability (nuclei count vs DMSO), 5 days (fraction); higher = more cells survive
Pazopanib + AZD7762 = compound: Cc1ccc(Nc2nccc(N(C)c3ccc4c(C)n(C)nc4c3)n2)cc1S(N)(=O)=O [Pazopanib] + NC(=O)Nc1cc(-c2cccc(F)c2)sc1C(=O)N[C@H]1CCCNC1 [AZD7762] (partner 0.2 µM)
Summary of the method: (§1)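 Lung cancer cell lines, seeded in 1536-well plates, were treated the following day by pin tool with a single drug or with five library-drug doses (not always all listed) in √10 steps on top of a fixed anchor-drug dose. Cells were fixed and nuclei stained in one step after 5 days, and nuclei were counted. Relative viability is the nuclei count for treated wells divided by that for vehicle wells, reported as medians of duplicate plates.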

Pazopanib + Bortezomib = compound: Cc1ccc(Nc2nccc(N(C)c3ccc4c(C)n(C)nc4c3)n2)cc1S(N)(=O)=O [Pazopanib] + CC(C)C[C@H](NC(=O)[C@H](Cc1ccccc1)NC(=O)c1cnccn1)B(O)O [Bortezomib] (partner 0.002 µM)
Summary of the method: as §1

Ponatinib + Bortezomib = compound: Cc1ccc(C(=O)Nc2ccc(CN3CCN(C)CC3)c(C(F)(F)F)c2)cc1C#Cc1cnc2cccnn12 [Ponatinib] + CC(C)C[C@H](NC(=O)[C@H](Cc1ccccc1)NC(=O)c1cnccn1)B(O)O [Bortezomib] (partner 0.002 µM)
Summary of the method: as §1

Ponatinib + Crizotinib = compound: Cc1ccc(C(=O)Nc2ccc(CN3CCN(C)CC3)c(C(F)(F)F)c2)cc1C#Cc1cnc2cccnn12 [Ponatinib] + C[C@@H](Oc1cc(-c2cnn(C3CCNCC3)c2)cnc1N)c1c(Cl)ccc(F)c1Cl [Crizotinib] (partner 1 µM)
Summary of the method: as §1

Cell Line	relative viability (Pazopanib + AZD7762; first compound 0.1 µM)	relative viability (Pazopanib + AZD7762; first compound 0.3162 µM)	relative viability (Pazopanib + AZD7762; first compound 1 µM)	relative viability (Pazopanib + AZD7762; first compound 0.01 µM)	relative viability (Pazopanib + AZD7762; first compound 0.03162 µM)	relative viability (Pazopanib + Bortezomib; first compound 0.1 µM)	relative viability (Pazopanib + Bortezomib; first compound 0.3162 µM)	relative viability (Pazopanib + Bortezomib; first compound 1 µM)	relative viability (Ponatinib + Bortezomib; first compound 0.006325 µM)	relative viability (Ponatinib + Bortezomib; first compound 0.06325 µM)	relative viability (Ponatinib + Bortezomib; first compound 0.2 µM)	relative viability (Ponatinib + Crizotinib; first compound 0.002 µM)	relative viability (Ponatinib + Crizotinib; first compound 0.006325 µM)	relative viability (Ponatinib + Crizotinib; first compound 0.06325 µM)	relative viability (Ponatinib + Crizotinib; first compound 0.2 µM)	relative viability (Pazopanib + Bortezomib; first compound 0.01 µM)	relative viability (Pazopanib + Bortezomib; first compound 0.03162 µM)	relative viability (Ponatinib + Bortezomib; first compound 0.002 µM)
NCI-H1648	0.668	0.711	0.796	–	–	–	–	–	–	–	–	–	–	–	–	–	–	–
NCI-H1395	0.389	0.38	0.387	0.36	0.366	–	–	–	–	–	–	–	–	–	–	–	–	–
NCI-H2347	0.773	0.822	0.787	0.682	0.711	1.23	0.95	0.997	1.08	0.962	0.938	0.694	0.885	0.668	0.688	–	–	–
HCC-366	0.314	0.276	0.238	0.321	0.202	1.02	0.973	1.09	1.13	1.14	0.982	0.474	0.506	0.531	0.519	0.954	1.07	1.04
201T	0.667	0.685	0.615	0.534	0.511	1.13	1.1	1.11	1.11	1.13	1.08	1.03	1.07	1.06	1.02	1.09	1.14	1.06
HCC-827	0.217	0.231	0.213	0.244	0.201	1.06	1.05	1.03	1.01	1.05	0.982	0.819	0.964	0.924	0.928	0.963	1.06	1
NCI-H650	1.09	0.942	0.904	0.948	1.07	0.804	0.935	0.812	0.695	0.575	0.703	0.598	0.663	0.695	0.605	0.696	0.861	0.536
NCI-H2023	–	–	–	–	–	0.877	0.964	1.42	0.982	1.17	0.764	0.711	0.769	0.788	0.664	0.719	0.945	0.957
NCI-H596	1.03	1.16	1.03	0.925	1.1	0.962	1.16	1.02	0.959	0.905	0.829	0.905	0.891	0.917	0.843	0.872	1.14	0.88
SK-LU-1	–	–	–	–	–	1.23	1.37	1.27	1.01	0.949	0.757	0.804	0.948	0.963	0.777	1.15	1.08	1.01
A-427	0.825	0.784	0.716	0.864	0.786	0.929	0.922	1.02	0.976	1.02	0.905	0.875	1.02	0.838	0.743	0.934	1.02	0.889
NCI-H460	0.551	0.637	0.597	0.766	0.619	1.2	1.14	1.13	0.98	1.06	0.974	0.764	0.863	1.02	0.908	1.03	1.23	1.01
NCI-H1703	0.16	0.14	0.125	–	0.12	0.233	0.267	0.214	0.261	0.26	0.143	0.588	0.693	0.254	0.172	0.26	0.262	0.296
NCI-H1792	0.701	0.67	0.662	–	0.704	0.916	0.949	0.935	0.942	1.14	0.854	0.956	0.988	1.1	0.976	–	0.958	0.918
Calu-6	–	–	–	–	–	1.04	0.932	0.957	1.11	0.953	0.856	0.701	0.73	0.805	0.763	0.928	1.06	1.01
SW 1573	–	–	–	–	–	1.08	1.09	1.17	1.02	1.03	0.997	0.707	0.876	0.887	0.608	0.945	1.14	0.971
RERF-LC-KJ	0.916	1.02	0.992	0.796	0.915	1.05	1.16	1.04	0.988	1.2	1.15	0.816	0.766	0.928	0.834	1.03	1.05	1.06
